According to publication PMC9986241 (Signal Transduction and Targeted Therapy, 2023):

Columns and labels:
ARK5(h) = molecular target: T1, ARK5(h) (Homo sapiens, UniProt O60285); assay: KinaseProfiler enzyme profiling; assay type: biochemical
T1 construct: purchased Eurofins KinaseProfiler
Method: (§1) Enzyme profiling services were provided by KinaseProfiler™ (Eurofin, Brussels, Belgium). The concentration of erianin was 100 nM, and total 70 kinases were tested in this in vitro screening and profiling services (2 repetitions). For more details, refer to the manufacturer’s instructions (www.eurofinsdiscoveryservices.com).

Aurora-B(h) = molecular target: T2, Aurora-B(h) (Homo sapiens, UniProt Q96GD4); assay: KinaseProfiler enzyme profiling; assay type: biochemical
T2 construct: purchased Eurofins KinaseProfiler
Method: as §1

CSK(h) = molecular target: T3, CSK(h) (Homo sapiens, UniProt P41240); assay: KinaseProfiler enzyme profiling; assay type: biochemical
T3 construct: purchased Eurofins KinaseProfiler
Method: as §1

EGFR(L858R)(h) = molecular target: T4, EGFR(L858R)(h) (Homo sapiens, UniProt P00533, L858R); assay: KinaseProfiler enzyme profiling; assay type: biochemical
T4 construct: purchased Eurofins KinaseProfiler
Method: as §1

EGFR(T790M)(h) = molecular target: T5, EGFR(T790M)(h) (Homo sapiens, UniProt P00533, T790M); assay: KinaseProfiler enzyme profiling; assay type: biochemical
T5 construct: purchased Eurofins KinaseProfiler
Method: as §1

EphA2(h) = molecular target: T6, EphA2(h) (Homo sapiens, UniProt P29317); assay: KinaseProfiler enzyme profiling; assay type: biochemical
T6 construct: purchased Eurofins KinaseProfiler
Method: as §1

EphB2(h) = molecular target: T7, EphB2(h) (Homo sapiens, UniProt P29323); assay: KinaseProfiler enzyme profiling; assay type: biochemical
T7 construct: purchased Eurofins KinaseProfiler
Method: as §1

FGFR2(h) = molecular target: T8, FGFR2(h) (Homo sapiens, UniProt P21802); assay: KinaseProfiler enzyme profiling; assay type: biochemical
T8 construct: purchased Eurofins KinaseProfiler
Method: as §1

FGFR4(h) = molecular target: T9, FGFR4(h) (Homo sapiens, UniProt P22455); assay: KinaseProfiler enzyme profiling; assay type: biochemical
T9 construct: purchased Eurofins KinaseProfiler
Method: as §1

MELK(h) = molecular target: T10, MELK(h) (Homo sapiens, UniProt Q14680); assay: KinaseProfiler enzyme profiling; assay type: biochemical
T10 construct: purchased Eurofins KinaseProfiler
Method: as §1

MKK6(h) = molecular target: T11, MKK6(h) (Homo sapiens, UniProt P52564); assay: KinaseProfiler enzyme profiling; assay type: biochemical
T11 construct: purchased Eurofins KinaseProfiler
Method: as §1

Mer(h) = molecular target: T12, Mer(h) (Homo sapiens, UniProt Q12866); assay: KinaseProfiler enzyme profiling; assay type: biochemical
T12 construct: purchased Eurofins KinaseProfiler
Method: as §1

NIM1(h) = molecular target: T13, NIM1(h) (Homo sapiens, UniProt Q8IY84); assay: KinaseProfiler enzyme profiling; assay type: biochemical
T13 construct: purchased Eurofins KinaseProfiler
Method: as §1

CaMKIIα(h) = molecular target: T14, CaMKIIα(h) (Homo sapiens, UniProt Q9UQM7); assay: KinaseProfiler enzyme profiling; assay type: biochemical; details: 100 nM
T14 construct: purchased Eurofins KinaseProfiler
Method: as §1

EphA1(h) = molecular target: T15, EphA1(h) (Homo sapiens, UniProt P21709); assay: KinaseProfiler enzyme profiling; assay type: biochemical; details: 100 nM
T15 construct: purchased Eurofins KinaseProfiler
Method: as §1

EphB3(h) = molecular target: T16, EphB3(h) (Homo sapiens, UniProt P54753); assay: KinaseProfiler enzyme profiling; assay type: biochemical; details: 100 nM
T16 construct: purchased Eurofins KinaseProfiler
Method: as §1

KDR(h) = molecular target: T17, KDR(h) (Homo sapiens, UniProt P35968); assay: KinaseProfiler enzyme profiling; assay type: biochemical; details: 100 nM
T17 construct: purchased Eurofins KinaseProfiler
Method: as §1

MEK2(h) = molecular target: T18, MEK2(h) (Homo sapiens, UniProt P36507); assay: KinaseProfiler enzyme profiling; assay type: biochemical
T18 construct: purchased Eurofins KinaseProfiler
Method: as §1

Ros(h) = molecular target: T19, Ros(h) (Homo sapiens, UniProt P08922); assay: KinaseProfiler enzyme profiling; assay type: biochemical; details: 100 nM
T19 construct: purchased Eurofins KinaseProfiler
Method: as §1

Rsk1(h) = molecular target: T20, Rsk1(h) (Homo sapiens, UniProt Q15418); assay: KinaseProfiler enzyme profiling; assay type: biochemical
T20 construct: purchased Eurofins KinaseProfiler
Method: as §1

SGK(h) = molecular target: T21, SGK(h) (Homo sapiens, UniProt O00141); assay: KinaseProfiler enzyme profiling; assay type: biochemical; details: 100 nM
T21 construct: purchased Eurofins KinaseProfiler
Method: as §1

Snk(h) = molecular target: T22, Snk(h) (Homo sapiens, UniProt Q9NYY3); assay: KinaseProfiler enzyme profiling; assay type: biochemical; details: 100 nM
T22 construct: purchased Eurofins KinaseProfiler
Method: as §1

Wee1(h) = molecular target: T23, Wee1(h) (Homo sapiens, UniProt P30291); assay: KinaseProfiler enzyme profiling; assay type: biochemical; details: 100 nM
T23 construct: purchased Eurofins KinaseProfiler
Method: as §1

eEF-2K(h) = molecular target: T24, eEF-2K(h) (Homo sapiens, UniProt O00418); assay: KinaseProfiler enzyme profiling; assay type: biochemical; details: 100 nM
T24 construct: purchased Eurofins KinaseProfiler
Method: as §1

MEK1/2 = assay: Erianin-conjugated Sepharose 4B bead pull-down assay; assay type: binding, human; details: in vitro and ex vivo (A375 cell lysate)
Method: 293 T cells were transfected with plasmids of pcDNA3.1-3×Flag-C-MAP2K1/MAP2K1 (K97A, M146A), MAP2K2/MAP2K1 (K101A, M150A), or CRAF/CRAF (K375A). […]
Cell lysate (500 μg) or recombinant proteins (200 ng) were incubated with erianin-CNBr activated sepharose 4B overnight at 4 °C, and the protein-beads complex was washed four times by the use of rotational incubator to remove non-specific binding. Western blotting was developed to check the pull-down bands.

CDK12/cyclinK(h) = molecular target: T25, CDK12/cyclinK(h) (Homo sapiens, UniProt Q9NYV4); assay: KinaseProfiler enzyme profiling; assay type: biochemical
T25 construct: purchased Eurofins KinaseProfiler
Method: as §1

CDK2/cyclinE(h) = molecular target: T26, CDK2/cyclinE(h) (Homo sapiens, UniProt P24941); assay: KinaseProfiler enzyme profiling; assay type: biochemical
T26 construct: purchased Eurofins KinaseProfiler
Method: as §1

CDK7/cyclinH/MAT1(h) = molecular target: T27, CDK7/cyclinH/MAT1(h) (Homo sapiens, UniProt P50613); assay: KinaseProfiler enzyme profiling; assay type: biochemical
T27 construct: purchased Eurofins KinaseProfiler
Method: as §1

ErbB2(h) = molecular target: T28, ErbB2(h) (Homo sapiens, UniProt P04626); assay: KinaseProfiler enzyme profiling; assay type: biochemical
T28 construct: purchased Eurofins KinaseProfiler
Method: as §1

ErbB4(h) = molecular target: T29, ErbB4(h) (Homo sapiens, UniProt Q15303); assay: KinaseProfiler enzyme profiling; assay type: biochemical
T29 construct: purchased Eurofins KinaseProfiler
Method: as §1

MAPKAP-K2(h) = molecular target: T30, MAPKAP-K2(h) (Homo sapiens, UniProt P49137); assay: KinaseProfiler enzyme profiling; assay type: biochemical
T30 construct: purchased Eurofins KinaseProfiler
Method: as §1

MST1(h) = molecular target: T31, MST1(h) (Homo sapiens, UniProt Q13043); assay: KinaseProfiler enzyme profiling; assay type: biochemical
T31 construct: purchased Eurofins KinaseProfiler
Method: as §1

MST4(h) = molecular target: T32, MST4(h) (Homo sapiens, UniProt Q9P289); assay: KinaseProfiler enzyme profiling; assay type: biochemical
T32 construct: purchased Eurofins KinaseProfiler
Method: as §1

NEK3(h) = molecular target: T33, NEK3(h) (Homo sapiens, UniProt P51956); assay: KinaseProfiler enzyme profiling; assay type: biochemical
T33 construct: purchased Eurofins KinaseProfiler
Method: as §1

PAK6(h) = molecular target: T34, PAK6(h) (Homo sapiens, UniProt Q9NQU5); assay: KinaseProfiler enzyme profiling; assay type: biochemical
T34 construct: purchased Eurofins KinaseProfiler
Method: as §1

SAPK2b(h) = molecular target: T35, SAPK2b(h) (Homo sapiens, UniProt Q15759); assay: KinaseProfiler enzyme profiling; assay type: biochemical
T35 construct: purchased Eurofins KinaseProfiler
Method: as §1

STK25(h) = molecular target: T36, STK25(h) (Homo sapiens, UniProt O00506); assay: KinaseProfiler enzyme profiling; assay type: biochemical
T36 construct: purchased Eurofins KinaseProfiler
Method: as §1

T17 sequence (P35968 20-1356): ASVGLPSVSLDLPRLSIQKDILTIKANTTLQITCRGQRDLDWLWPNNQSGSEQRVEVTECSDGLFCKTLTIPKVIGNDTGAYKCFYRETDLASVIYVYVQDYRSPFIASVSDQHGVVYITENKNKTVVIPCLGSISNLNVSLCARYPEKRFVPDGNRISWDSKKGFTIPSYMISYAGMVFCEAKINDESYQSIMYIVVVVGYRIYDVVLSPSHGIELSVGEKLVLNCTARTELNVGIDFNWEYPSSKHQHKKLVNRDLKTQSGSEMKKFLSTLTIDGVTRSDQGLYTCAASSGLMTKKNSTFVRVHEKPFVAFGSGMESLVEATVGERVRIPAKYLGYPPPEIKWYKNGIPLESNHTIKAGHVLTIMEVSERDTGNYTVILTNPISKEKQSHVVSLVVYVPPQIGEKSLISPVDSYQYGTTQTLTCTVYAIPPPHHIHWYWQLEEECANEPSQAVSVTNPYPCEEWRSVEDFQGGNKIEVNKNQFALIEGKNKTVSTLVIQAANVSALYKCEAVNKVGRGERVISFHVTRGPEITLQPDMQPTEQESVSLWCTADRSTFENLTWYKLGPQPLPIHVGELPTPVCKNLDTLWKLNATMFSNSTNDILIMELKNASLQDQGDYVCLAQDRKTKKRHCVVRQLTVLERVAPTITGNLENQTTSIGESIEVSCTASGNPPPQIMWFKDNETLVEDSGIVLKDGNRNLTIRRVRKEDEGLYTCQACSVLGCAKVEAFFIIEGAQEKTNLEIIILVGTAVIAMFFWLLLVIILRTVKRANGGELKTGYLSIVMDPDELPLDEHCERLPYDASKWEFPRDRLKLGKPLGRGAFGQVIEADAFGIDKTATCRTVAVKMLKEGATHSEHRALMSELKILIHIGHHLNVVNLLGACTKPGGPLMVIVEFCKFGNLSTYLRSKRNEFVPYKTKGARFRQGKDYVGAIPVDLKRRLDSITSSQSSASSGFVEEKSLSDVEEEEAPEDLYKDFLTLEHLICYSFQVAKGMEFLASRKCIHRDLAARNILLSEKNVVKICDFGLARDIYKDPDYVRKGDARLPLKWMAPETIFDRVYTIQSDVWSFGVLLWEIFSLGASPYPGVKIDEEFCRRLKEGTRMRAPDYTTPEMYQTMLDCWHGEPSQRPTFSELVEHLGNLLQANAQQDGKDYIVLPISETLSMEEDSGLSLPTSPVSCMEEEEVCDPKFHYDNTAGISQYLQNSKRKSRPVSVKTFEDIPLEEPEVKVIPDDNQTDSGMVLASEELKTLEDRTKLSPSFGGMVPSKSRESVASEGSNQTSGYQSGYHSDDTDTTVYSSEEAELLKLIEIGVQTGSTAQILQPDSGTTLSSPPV
T34 sequence (Q9NQU5 whole entry): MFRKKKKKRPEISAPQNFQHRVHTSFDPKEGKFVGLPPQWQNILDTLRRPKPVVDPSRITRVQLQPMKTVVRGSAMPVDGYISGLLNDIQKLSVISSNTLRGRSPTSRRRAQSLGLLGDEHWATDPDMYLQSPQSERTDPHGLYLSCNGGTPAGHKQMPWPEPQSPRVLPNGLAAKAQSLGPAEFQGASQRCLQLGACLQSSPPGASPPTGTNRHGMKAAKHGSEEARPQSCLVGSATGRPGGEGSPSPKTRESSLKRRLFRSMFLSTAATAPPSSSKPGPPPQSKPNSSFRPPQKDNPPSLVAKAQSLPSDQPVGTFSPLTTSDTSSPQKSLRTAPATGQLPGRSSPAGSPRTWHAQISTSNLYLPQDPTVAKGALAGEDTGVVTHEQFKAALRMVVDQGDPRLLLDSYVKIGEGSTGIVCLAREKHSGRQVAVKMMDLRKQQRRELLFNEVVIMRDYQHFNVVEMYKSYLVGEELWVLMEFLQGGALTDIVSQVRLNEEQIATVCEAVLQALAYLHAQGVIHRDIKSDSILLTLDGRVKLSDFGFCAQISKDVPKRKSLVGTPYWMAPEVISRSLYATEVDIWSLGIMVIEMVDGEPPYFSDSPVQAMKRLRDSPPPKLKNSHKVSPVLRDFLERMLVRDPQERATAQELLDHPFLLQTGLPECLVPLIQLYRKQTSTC
T7 sequence (P29323 19-1055): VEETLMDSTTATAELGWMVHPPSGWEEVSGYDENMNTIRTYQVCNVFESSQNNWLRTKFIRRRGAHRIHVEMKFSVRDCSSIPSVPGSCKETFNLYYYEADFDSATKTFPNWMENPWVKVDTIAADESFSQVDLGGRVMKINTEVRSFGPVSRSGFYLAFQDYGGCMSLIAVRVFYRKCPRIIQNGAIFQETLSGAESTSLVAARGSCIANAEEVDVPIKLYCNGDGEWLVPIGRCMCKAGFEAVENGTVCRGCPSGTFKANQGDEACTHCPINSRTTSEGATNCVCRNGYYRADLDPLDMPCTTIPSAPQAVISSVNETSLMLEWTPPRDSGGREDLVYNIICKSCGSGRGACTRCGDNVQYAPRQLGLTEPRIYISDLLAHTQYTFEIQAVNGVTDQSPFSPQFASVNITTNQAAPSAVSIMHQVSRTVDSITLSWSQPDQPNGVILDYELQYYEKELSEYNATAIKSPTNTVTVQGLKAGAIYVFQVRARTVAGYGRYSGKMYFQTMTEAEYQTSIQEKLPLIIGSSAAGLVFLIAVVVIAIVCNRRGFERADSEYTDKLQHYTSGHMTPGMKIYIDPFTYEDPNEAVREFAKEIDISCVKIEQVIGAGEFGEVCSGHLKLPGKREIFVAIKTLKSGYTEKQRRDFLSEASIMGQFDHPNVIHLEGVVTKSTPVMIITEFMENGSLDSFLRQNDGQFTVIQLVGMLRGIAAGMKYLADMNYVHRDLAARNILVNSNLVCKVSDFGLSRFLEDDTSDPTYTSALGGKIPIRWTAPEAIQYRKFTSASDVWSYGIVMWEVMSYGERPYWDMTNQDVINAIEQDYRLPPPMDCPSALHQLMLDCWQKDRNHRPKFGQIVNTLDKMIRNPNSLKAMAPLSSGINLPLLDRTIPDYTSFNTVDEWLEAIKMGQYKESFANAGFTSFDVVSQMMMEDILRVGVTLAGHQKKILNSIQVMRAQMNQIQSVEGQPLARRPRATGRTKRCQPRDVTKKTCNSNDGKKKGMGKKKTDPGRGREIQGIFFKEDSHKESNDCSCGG
T32 sequence (Q9P289 whole entry): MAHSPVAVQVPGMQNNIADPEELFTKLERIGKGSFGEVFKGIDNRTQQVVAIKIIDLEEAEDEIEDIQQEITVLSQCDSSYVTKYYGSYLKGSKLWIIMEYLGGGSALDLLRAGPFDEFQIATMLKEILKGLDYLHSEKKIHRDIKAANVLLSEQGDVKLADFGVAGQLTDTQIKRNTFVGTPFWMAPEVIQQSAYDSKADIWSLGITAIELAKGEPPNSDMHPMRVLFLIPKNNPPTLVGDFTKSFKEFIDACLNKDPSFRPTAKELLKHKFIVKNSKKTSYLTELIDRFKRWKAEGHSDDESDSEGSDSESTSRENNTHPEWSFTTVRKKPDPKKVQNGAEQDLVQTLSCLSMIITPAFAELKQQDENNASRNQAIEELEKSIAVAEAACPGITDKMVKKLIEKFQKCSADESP
T30 sequence (P49137 whole entry): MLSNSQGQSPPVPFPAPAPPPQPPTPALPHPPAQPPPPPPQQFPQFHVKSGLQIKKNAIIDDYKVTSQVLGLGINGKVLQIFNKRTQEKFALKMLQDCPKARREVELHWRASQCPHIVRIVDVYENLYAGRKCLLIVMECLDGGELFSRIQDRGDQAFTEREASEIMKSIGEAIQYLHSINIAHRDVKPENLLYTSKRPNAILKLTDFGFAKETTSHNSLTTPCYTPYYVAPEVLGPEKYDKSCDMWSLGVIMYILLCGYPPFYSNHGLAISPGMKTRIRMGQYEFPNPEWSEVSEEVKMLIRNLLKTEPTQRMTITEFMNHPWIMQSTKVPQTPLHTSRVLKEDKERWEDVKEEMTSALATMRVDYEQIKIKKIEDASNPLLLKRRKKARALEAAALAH
T20 sequence (Q15418 whole entry): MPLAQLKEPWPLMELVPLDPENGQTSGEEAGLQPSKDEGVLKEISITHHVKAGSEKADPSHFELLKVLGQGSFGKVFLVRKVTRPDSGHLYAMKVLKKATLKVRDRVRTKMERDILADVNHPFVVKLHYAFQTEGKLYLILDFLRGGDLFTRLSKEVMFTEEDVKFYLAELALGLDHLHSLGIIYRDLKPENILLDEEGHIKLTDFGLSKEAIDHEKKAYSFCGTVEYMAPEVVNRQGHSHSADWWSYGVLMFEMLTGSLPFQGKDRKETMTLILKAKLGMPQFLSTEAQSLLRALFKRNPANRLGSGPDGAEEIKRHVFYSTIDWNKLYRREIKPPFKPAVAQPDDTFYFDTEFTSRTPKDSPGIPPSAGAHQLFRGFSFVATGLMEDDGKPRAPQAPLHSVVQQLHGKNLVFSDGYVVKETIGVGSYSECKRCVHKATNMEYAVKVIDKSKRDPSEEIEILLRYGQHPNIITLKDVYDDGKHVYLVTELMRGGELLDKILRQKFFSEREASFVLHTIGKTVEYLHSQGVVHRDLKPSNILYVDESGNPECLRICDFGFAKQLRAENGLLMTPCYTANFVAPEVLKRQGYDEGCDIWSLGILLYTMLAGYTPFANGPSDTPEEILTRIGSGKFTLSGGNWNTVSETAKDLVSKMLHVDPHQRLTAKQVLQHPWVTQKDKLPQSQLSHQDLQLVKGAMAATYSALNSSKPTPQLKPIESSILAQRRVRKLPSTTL
T21 sequence (O00141 whole entry): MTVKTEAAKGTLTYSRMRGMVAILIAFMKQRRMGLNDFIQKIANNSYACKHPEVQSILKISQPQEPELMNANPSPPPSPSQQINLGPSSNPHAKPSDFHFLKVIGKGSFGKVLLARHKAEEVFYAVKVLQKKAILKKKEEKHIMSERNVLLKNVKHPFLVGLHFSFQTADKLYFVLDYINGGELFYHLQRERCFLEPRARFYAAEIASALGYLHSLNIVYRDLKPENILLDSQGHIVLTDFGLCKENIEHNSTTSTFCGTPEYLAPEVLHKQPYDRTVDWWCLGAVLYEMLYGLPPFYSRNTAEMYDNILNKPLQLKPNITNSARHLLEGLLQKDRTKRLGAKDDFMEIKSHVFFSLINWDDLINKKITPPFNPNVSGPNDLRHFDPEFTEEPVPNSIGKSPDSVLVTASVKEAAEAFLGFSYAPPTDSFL

**Q.** For `COc1cc2oc(-c3ccc(O)c(O)c3)cc(=O)c2c(O)c1OC` [Cirsiliol], which activity at 10 µM (ARK5(h)) is on record?
**A.** 97%

**Q.** What about the activity at 10 µM (Aurora-B(h)) of the same compound?
**A.** 86%

**Q.** And the activity at 10 µM (CSK(h))?
**A.** 100%

**Q.** And the activity at 10 µM (EGFR(L858R)(h))?
**A.** 107%

**Q.** What about the activity at 10 µM (EGFR(T790M)(h)) of the same compound?
**A.** 117%

**Q.** What about the activity at 10 µM (EphA2(h)) of the same compound?
**A.** 97%

**Q.** What about the activity at 10 µM (EphB2(h)) of the same compound?
**A.** 98%

**Q.** What about the activity at 10 µM (FGFR2(h)) of the same compound?
**A.** 110%

**Q.** And the activity at 10 µM (FGFR4(h))?
**A.** 87%

**Q.** And the activity at 10 µM (MELK(h))?
**A.** 100%

**Q.** And the activity at 10 µM (MKK6(h))?
**A.** 112%

**Q.** What about the activity at 10 µM (Mer(h)) of the same compound?
**A.** 109%

**Q.** What about the activity at 10 µM (NIM1(h)) of the same compound?
**A.** 121%

**Q.** Which results are given for `COc1ccc(CCc2cc(OC)c(OC)c(OC)c2)cc1O` [Erianin]?
**A.** activity at 0.1 µM (CaMKIIα(h)): 90%; activity at 0.1 µM (EphA1(h)): 101%; activity at 0.1 µM (EphB3(h)): 95%; activity at 0.1 µM (KDR(h)): 96%; activity at 0.1 µM (MEK2(h)): 83%; activity at 0.1 µM (Ros(h)): 103%; activity at 0.1 µM (Rsk1(h)): 90%; activity at 0.1 µM (SGK(h)): 122%; activity at 0.1 µM (Snk(h)): 109%; activity at 0.1 µM (Wee1(h)): 111%; activity at 0.1 µM (eEF-2K(h)): 91%; binding in pull-down (MEK1/2): directly bound

**Q.** `C=C1C(=O)[C@]23[C@H](O)[C@H]1CC[C@H]2[C@@]12CO[C@]3(O)[C@@H](O)[C@@H]1C(C)(C)CC[C@@H]2O` [Oridonin] was tested. Which activity at 10 µM (CDK12/cyclinK(h)) did it give?
**A.** 98%

**Q.** And the activity at 10 µM (CDK2/cyclinE(h))?
**A.** 57%

**Q.** And the activity at 10 µM (CDK7/cyclinH/MAT1(h))?
**A.** 69%

**Q.** What about the activity at 10 µM (ErbB2(h)) of the same compound?
**A.** 112%

**Q.** What about the activity at 10 µM (ErbB4(h)) of the same compound?
**A.** 91%

**Q.** What about the activity at 10 µM (MAPKAP-K2(h)) of the same compound?
**A.** 85%

**Q.** And the activity at 10 µM (MST1(h))?
**A.** 65%

**Q.** What about the activity at 10 µM (MST4(h)) of the same compound?
**A.** 140%

**Q.** What about the activity at 10 µM (NEK3(h)) of the same compound?
**A.** 64%

**Q.** What about the activity at 10 µM (PAK6(h)) of the same compound?
**A.** 104%

**Q.** And the activity at 10 µM (SAPK2b(h))?
**A.** 102%

**Q.** And the activity at 10 µM (STK25(h))?
**A.** 105%
